This is an account of results in patent publication US10314847B2, “Scalarane sesterterpenoid, pharmaceutical composition and topoisomerase II and Hsp90 inhibitor for treating cancer, and use and preparation method thereof” (NATIONAL DONG HWA UNIVERSITY, priority 2017, dated 2019).

Data set [1] concerns γH2AX. As to the kind of experiment: Western blot of γH2AX expression in Molt 4 cells. The data set is classed as cell-based, human. Conditions: Molt 4 cells, 0.0625, 0.125 and 0.25 μg/mL, 24 hours. As for the experimental part: Protein expression was analyzed with Western blotting. GAPDH was used as the loading control.
In order to confirm whether the DNA damage-induced by the marine terpenoids of the present invention involved the inhibition of Topo II activity, a cell-free DNA cleavage assay using an enzyme-mediated negatively supercoiled pHOT1 plasmid DNA was applied. […] These marine terpenoids suppressed Topo II activity, resulting in the inhibition of supercoiled DNA relaxation in a dose-dependent manner (FIG. 2(A)). […] To determine whether the apoptotic mechanism of compounds 1 to 3 affects γH2AX (as a biomarker of DNA damage) induction, Western blot analysis was employed to examine the activation of γH2AX.
A general note: Immunoblotting shows a protein as a band on a membrane.

The test system of data set [2] is Molt 4 cells. Nature of the data set: JC-1 staining, mitochondrial membrane potential disruption. The data set is classed as cell-based, human. Conditions: Molt 4 cells, 0.0625, 0.125 and 0.25 μg/mL, 24 hours, dose-dependent. As to the method: Determination of Reactive Oxygen Species (ROS) Generation, Calcium Accumulation, and Matrix Metalloproteinase (MMP) Disruption:
MMP disruption, calcium accumulation and ROS generation were detected with the JC-1 cationic dye (5 μg/mL), the fluorescent calcium indicator (Fluo 3, […]) and the carboxy derivative of fluorescein (carboxy-H2DCFDA, […]), respectively. In brief, the treated cells were labeled with a specific fluorescent dye for 30 minutes. After labeling, cells were washed with PBS and resuspended in PBS at a concentration of 1×10^6 cells/mL before analysis via flow cytometry.

Data set [3] relates to ER stress-related proteins. Nature of the data set: Western blot of ER stress-related proteins. The data set is classed as cell-based, human. The conditions noted are these: Molt 4 cells, time-dependent. As to the method: Oxidative stress is manifested by ROS overexpression and cannot be balanced by the available antioxidant machinery. Compound 1 of the present invention can damage the integrity of mitochondria, which are the major production sites of the superoxide anion, […]. The induction of the intracellular formation of ROS by compound 1 was determined with a carboxyl derivative of fluorescein, carboxy-H2DCFDA dye using flow cytometric analysis. […] In addition, ROS generation could induce ER stress leading to mitochondria-related apoptosis. To further investigate if ER stress is involved in the apoptotic effect induced by compound 1, Western blot analysis was used to determine the expression of ER stress-related proteins. […] Furthermore, the effect of compound 1 on the release of intracellular Ca^2+, was evaluated using fluorescent calcium indicator, Fluo 3. […] In FIG. 4(D), the induction of the typical executor caspases-3 and -7, and γH2AX, was also observed using Western blot analysis. To confirm the induction of DNA damage by compound 1 in Molt 4 cells, a comet assay under neutral electrophoresis condition was utilized. Thus, the effect of compound 1 (0.0625 μg/mL) at different time intervals (0, 3, 6 and 9 hours) on the level of nuclear DNA integrity was determined. […]

Data set [4] concerns Molt 4 cells. Nature of the data set: Neutral comet assay for DNA double-strand breaks. The format is cell-based, human. Conditions: 0.0625 μg/mL, 0, 3, 6 and 9 hours. As to the method:
Neutral Comet Assay for Detection of DNA Double-Strand Breaks (DSBs):
The assay was carried out using a CometAssay™ Kit (Trevigen, Gaithersburg, Md., U.S.A.) following the manufacturer's protocol for the neutral Comet assay. Briefly, cancer cells (2×10^5 cells/mL) were treated with compound 1 (0.0625 μg/mL) at the indicated time. Cells were combined with 1% low melting point agarose at a ratio of 1:10 (v/v) and immediately 75 μL of the mixture was pipetted onto CometSlide™ and allowed to set at 4° C. in the dark. The slides were immersed in an ice-cold lysis solution (Trevigen) for 30 to 60 minutes. […] The fluorescence images were analyzed using the TriTek Comet Image program to circumscribe the “head” and the “tail” regions of each comet and the integrated fluorescence values of each defined area were recorded. The comet length was measured from the trailing edge of the nucleus to the leading edge of the tail. […] The results were expressed as mean±standard deviation (SD) (*p<0.05).
Oxidative stress is manifested by ROS overexpression and cannot be balanced by the available antioxidant machinery. […] The induction of the intracellular formation of ROS by compound 1 was determined with a carboxyl derivative of fluorescein, carboxy-H2DCFDA dye using flow cytometric analysis. […]

The subject of data set [5] is Hsp90 client proteins. Nature of the data set: Western blot of Hsp90, Hsp70 and Hsp90 client proteins. The data set is classed as cell-based, human. Conditions: Molt 4 cells, 0.0625 μg/mL. As to the method:
The induction of Hsp70 is the biomarker of Hsp90 with N-terminal inhibition. Aiming to understand the relation between Hsp90 function and the expression of Hsp70 and 90 clients, Molt 4 cells were treated with compound 1 (0.0625 μg/mL) for different time intervals. […] Furthermore, as shown in FIG. 5(B), Hsp90 client proteins were suppressed, including p70^S6K, NFκB, Raf-1, p-GSK3β, MEK 1 and XIAP ([…] protein), MDM 2 and Rb2 (oncoprotein), and CDK4 (cell cycle regulatory protein), HIF 1 and HSF1 (transcription factor). The majority of Hsps accumulate in subcellular localizations that determine whether a cell is going to die or differentiate. Furthermore, the localization of Hsp70 in response to the compound 1 treatment was identified using immunofluorescence by confocal microscope.

The subject of data set [6] is Hsp70. As to the kind of experiment: Immunofluorescence analysis of Hsp70 localization. The format is cell-based, human. The conditions noted are these: Molt 4 cells, confocal microscope. As for the experimental part:
Immunofluorescence Analysis:
After treatment with the tested compound, cells were fixed with 4% paraformaldehyde in 50 mM HEPES buffer (pH 7.3) for 30 minutes, and permeabilized for 20 minutes with 0.2% Trition X-100 in PBS (pH 7.4). To prevent non-specific protein binding, cells were incubated with 5% BSA in PBS containing 0.05% Trition X-100 (T-PBS) for 1 hour at room temperature. Cells were then incubated with the primary Hsp70 antibodies (1:500) for 2 hours and further with secondary antibodies (Alexa Fluor […] goat anti-mouse IgG (H+L) (Life Technologies, Carlsbad, Calif., U.S.A.)) diluted at 1:1000 for 1 hour at room temperature. After washing with PBS, cells were observed under a FV1000 confocal laser scanning microscope (Olympus, Tokyo, Japan).
The induction of Hsp70 is the biomarker of Hsp90 with N-terminal inhibition. Aiming to understand the relation between Hsp90 function and the expression of Hsp70 and 90 clients, Molt 4 cells were treated with compound 1 (0.0625 μg/mL) for different time intervals. […] Furthermore, as shown in FIG. 5(B), Hsp90 client proteins were suppressed, including p70^S6K, NFκB, Raf-1, p-GSK3β, MEK 1 and XIAP ([…] protein), MDM 2 and Rb2 (oncoprotein), and CDK4 (cell cycle regulatory protein), HIF 1 and HSF1 (transcription factor). […]

Data set [7] has as its system Cal-27.

With `CC[C@@]1(C)CCC[C@]2(C)[C@H]3C[C@@H](OC(=O)C[C@@H](C)O)[C@]4(C)[C@@H](C=O)C(C(C)=O)=CC[C@H]4[C@]3(C)CC[C@@H]12` (relative stereo) [Compound 1, 12β-(3′β-hydroxybutanoyloxy)-20,24-dimethyl-24-oxo-scalara-16-en-25-al], the “Expression of γH2AX (DNA damage biomarker)” value in data set [1] is “significantly enhanced the expression of γH2AX in a dose-dependent manner”. For the same molecule, the “Mitochondrial membrane potential (JC-1)” value in data set [2] was “disruption in mitochondrial membrane potential”. In addition, the “Expression of ER stress-related proteins” value in data set [3] was “promoted the levels of Bip, Chop, Grp 94 and the activation and cleavage of ATF 6 but suppressed the levels of PERK and IRE 1”. In addition, in data set [4], the “DNA migration (comet tail, DSBs)” value is given as “increased the degree of DNA migration”. In addition, in data set [5], the “Expression of HSF 1 protein” value is recorded as “attenuated” and the “Hsp90 client proteins (p70S6K, NFκB, Raf-1, p-GSK3β, MEK 1, XIAP, MDM 2, Rb2, CDK4, HIF 1, HSF1)” value is reported as “suppressed”. Further, in data set [5] (different time intervals), the “Expression of Hsp70” value is recorded as “increased in a time-dependent manner” and the “Expression of Hsp90 protein” value is given as “did not notably attenuate”. The “Localization of Hsp70” value in data set [6] was “predominantly accumulated in cytosol”. In data set [7], the “Cytotoxic effect IC50, Cal-27” value is 0.56 µg/mL.
